In US20150290265A1, “COMPOSITION FOR TREATING METABOLIC DISORDERS” (PIRAMAL ENTERPRISES LIMITED, priority 2012, published 2015):

Legend:
[1] = High fat diet (HFD) induced body weight gain study in mice; assay type: in vivo, C57BL/6J mice; conditions: Mean ± S.E.M.
Procedure: Male C57BL/6J mice (in-house; Central Animal Facility, Piramal Healthcare Limited, Goregaon, Mumbai, Maharashtra, India) were acclimatized with HFD (60% Kcal, D12492, Research Diets, USA) for two weeks. […] Orlistat (Biocon, India) was used as the standard drug and was administered orally at a dose of 15 mg/kg body weight, twice daily. A separate group of ten mice was fed a low fat diet (LFD, 10% kcal, D12450B, Research Diet, USA) as a normal control. Vehicle was administered to the HFD and LFD control groups at dose of 10 mL/kg body weight. The treatments were continued for a period of sixty days. Body weight and feed intake were monitored daily. The % change in body weight (% increase in body weight from day 1) and the cumulative feed intake data was calculated. On day sixtyone, blood samples (˜200 μL/mice) were collected in heparinised (50 IU/mL) micro-centrifuge tubes under isoflurane anesthesia. Plasma was separated by centrifugation at 10000 rpm at 4° C. for estimation of various plasma biochemistry parameters. The biochemistry analysis was performed on BS-400 autoanalyzer (Mindray, China). […] All the data was analyzed for statistical significance by one-way ANOVA followed by Dunnet's post-hoc test and values of P<0.05 were considered as significant. […]

[2] = biological target: T1, human DGAT-1 enzyme (Homo sapiens, UniProt O75907); assay: hDGAT-1 inhibition assay (microsomes from Sf9 cells, [14C]oleoyl-CoA incorporation); assay type: biochemical; conditions: 50 μg/mL
T1 construct: host or cells: Sf9 insect cells (baculovirus, Bac-to-Bac); microsomal fraction
T1 sequence (O75907 1-488): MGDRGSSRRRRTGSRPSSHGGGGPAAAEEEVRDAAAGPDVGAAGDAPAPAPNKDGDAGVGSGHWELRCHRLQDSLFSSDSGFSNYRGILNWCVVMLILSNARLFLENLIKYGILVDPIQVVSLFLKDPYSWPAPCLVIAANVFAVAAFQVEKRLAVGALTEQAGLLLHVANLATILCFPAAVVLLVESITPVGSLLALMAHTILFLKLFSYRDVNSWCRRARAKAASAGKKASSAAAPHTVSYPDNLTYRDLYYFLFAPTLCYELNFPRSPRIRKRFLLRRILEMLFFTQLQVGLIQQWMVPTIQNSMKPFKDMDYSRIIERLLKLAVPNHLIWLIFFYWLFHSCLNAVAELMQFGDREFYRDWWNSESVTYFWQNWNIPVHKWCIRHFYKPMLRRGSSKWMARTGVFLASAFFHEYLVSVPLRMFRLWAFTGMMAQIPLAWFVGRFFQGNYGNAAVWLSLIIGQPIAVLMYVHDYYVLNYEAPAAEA
Procedure: The DGAT-1 assay was designed using human DGAT-1 enzyme over expressed in Sf9 cell-line as described in the reference, European Journal of Pharmacology, 650, 663-672, 2011, the disclosure of which is incorporated by reference for the teaching of the assay.
Enzyme was diluted to a working concentration of 1 mg/mL in hDGAT-1 assay buffer, 2.5 μL of the working enzyme stock was used in hDGAT-1 assay (final concentration 25 μg/mL).
The test samples were prepared as follows. […] The working stock was prepared in hDGAT-1 assay buffer. 10 μL of working stock was added into 100 μL of assay mixture to obtain the final concentration of extracts at 50 μg/mL.
60 μL of substrate mix (as described above) was added to a total assay volume of 100 μL. The reaction was started by adding 2.5 μg hDGAT-1 containing microsomal protein and was incubated at 37° C. for 10 min. The reaction was stopped by adding 300 μL of alkaline ethanol stop solution mix (AESSM). […] 250 μL of the upper heptane was added into 4 mL of scintillation fluid and measured using a liquid scintillation counter (Packard; 1600CA) as disintegration per min (dpm) counts. The percentage inhibition was calculated with respect to the vehicle.

[3] = biological target: T2, SCD-1 enzyme (Rattus norvegicus, UniProt P07308); assay: SCD-1 inhibition assay (rat liver microsomes, 3H2O release); assay type: biochemical; conditions: 50 μg/mL
T2 construct: Male Sprague-Dawley rats (150-175 g) were fasted for two days and then fed on low fat diet for three days to induce SCD-1 activity; from tissue; host or cells: liver microsomes of male Sprague-Dawley rats
T2 sequence (P07308 1-358): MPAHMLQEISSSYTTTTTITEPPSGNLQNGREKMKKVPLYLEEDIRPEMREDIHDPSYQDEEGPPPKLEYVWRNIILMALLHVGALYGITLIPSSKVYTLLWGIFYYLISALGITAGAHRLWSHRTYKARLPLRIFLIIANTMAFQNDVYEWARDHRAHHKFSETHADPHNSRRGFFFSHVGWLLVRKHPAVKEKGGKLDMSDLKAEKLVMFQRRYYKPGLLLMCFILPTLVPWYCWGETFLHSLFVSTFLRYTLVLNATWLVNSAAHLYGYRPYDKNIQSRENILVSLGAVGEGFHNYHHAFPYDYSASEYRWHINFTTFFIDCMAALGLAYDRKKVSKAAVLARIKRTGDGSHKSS
Procedure: The assay was carried out according to the method described in reference, European Journal of Pharmacology, 618, 28-36, 2009, the disclosure of which is incorporated by reference for the teaching of the assay.
The SCD-1 enzyme was prepared from rat liver microsomes as described in PCT Publication Application WO2008/074835A1, the disclosure of which is incorporated herein by reference for the teaching of the assay.
Male Sprague-Dawley rats (150-175 g) were fasted for two days and then fed on low fat diet for three days to induce SCD-1 activity. The rats were then sacrificed and their livers were removed and placed on ice. The livers were finely chopped with scissors and then homogenized using a Polytron homogenizer in a homogenization buffer (150 mM KCl, 250 mM sucrose, 50 mM tris-HCl, pH 7.5, 5 mM EDTA, and 1.5 mM reduced glutathione) at 4° C. The homogenate was centrifuged at 1500×g for 20 min at 4° C. […]
The microsomes (62.5 μg) were treated with the test sample for 15 min. […] The filtrate containing ^3H2O was transferred to scintillation vials containing 4 mL of scintillation fluid and the cpm counts were measured using a liquid scintillation counter. The % inhibition was calculated with reference to the vehicle control.
The dose response was determined at concentrations of 25 μg/mL, 50 μg/mL and 100 μg/mL by serially diluting stock solutions of Extract of Example 2.

CCCCCCCCCCC[C@@H](C[C@@H]1OC(=O)[C@H]1CCCCCC)OC(=O)[C@H](CC(C)C)NC=O [Orlistat]
Body weight (g, day 0) ([1]; day 0 (baseline)): 26.4 ± 0.4 g
Body weight (g, day 60) ([1]; day 60, Extract 500 mg/kg orally once daily, Orlistat 15 mg/kg orally twice daily): 30.9 ± 0.9 g

C[C@@H]1O[C@@H](Oc2cc3c(=O)oc4c(O)c(O)cc5c(=O)oc(c2O)c3c45)[C@H](O)[C@H](O)[C@H]1O [The compound 1, Ellagic acid, 4-O-alpha-L-rhamnopyranoside]
activity in the hDGAT-1 inhibition assay (conclusion) [2]: active
inhibition at 50 µg/mL ([2]; Table 1): 85%
activity in the SCD-1 inhibition assay (conclusion) [3]: active
inhibition at 50 µg/mL ([3]; Table 3): 74.2%
